Source: US20030091601A1, “Use of topical arginine to enhance wound healing” (ABAT Inc., priority 2001, published 2003)

Test system: wound site
Experiment: Hydroxyproline (OHP) content of subcutaneous PVA sponges fed by mini-osmotic pump at a dorsal skin incision, index of wound reparative collagen accumulation
Format: in vivo, rats
Settings: for OHP (collagen synthesis): day 14 post-wounding, mean±SEM
Procedure: (§1) Twenty-eight (28) male adult rats were obtained from a commercial breeder. Rats were housed individually in stainless steel cages at a constant temperature (25°±1° C.) and relative humidity (40-50%). The cages were kept in a room with a twelve-hour light-twelve-hour dark cycle. All animals were allowed at least one week of acclimatization to the laboratory conditions prior to use in the experiments. During this time, they were fed a standard laboratory chow and drank tap water ad libitum.
After the period of acclimatization, the rats were randomly placed into four groups, seven rats per group. Under pentobarbital anesthesia, their backs were shaved and scrubbed with an organic iodine solution and a dorsal skin incision was made. Subcutaneously at the skin incision, a mini-osmotic pump (model 2002, 0.5 μl/hr, Alzet Co.) attached to a polyvinyl alcohol sponge was inserted. Pumps were filled either with PBS or various solutions of arginine in PBS as indicated on Table 1. The rats tolerated the procedure well and recovered uneventfully.
The 1M solution delivers 2 mg/animal/day into the sponge. On the fourteenth day post-wounding, rats were sacrificed with an overdose of pentobarbital. The pelt containing the healing scar was excised. The PVA sponges were removed, carefully cleared of surrounding tissue and frozen at −20° C. for subsequent determination of hydroxyproline content as an index of wound reparative collagen accumulation using the method of Woessner. See J. Woessner, Determination of Hydroxproline in Tissue and Protein Samples Containing Small Proportions of this Amino Acid, Biochem. Biophys., Vol.93, p. 440 (1961).
as §1, with “Twenty (20)” for “Twenty-eight (28)”, “As in Experimental Example 1, rats” for “Rats”, “twelve hour light-twelve hour” for “twelve-hour light-twelve-hour”
After the period of acclimatization, the rats were randomly placed into two groups of ten rats. Under pentobarbital anesthesia, the rats' backs were shaved and scrubbed with an organic iodine solution and a dorsal skin incision was made. As in Experimental Example 1, a mini-osmotic pump (model 2002, 0.5 μl/hr, Alzet Co.) attached to a polyvinyl alcohol sponge was inserted subcutaneously at the incision site. Pumps were filled either with PBS or a solution of 1M arginine in PBS as indicated on Table 3. The rats tolerated the procedure well and recovered uneventfully.
as §1, with “Twenty-one (21)” for “Twenty-eight (28)”, “As in Example Experiments 1 and 2, rats” for “Rats”, “twelve hour light-twelve hour” for “twelve-hour light-twelve-hour”
After the period of acclimatization, the rats were randomly placed into two groups, eight (8) rats were placed into Group 1 and treated with PBS only and thirteen (13) rats were placed into Group 2 and treated with 1M omithine in PBS. Under pentobarbital anesthesia, the rats' backs were shave and scrubbed with an organic iodine solution and a dorsal skin incision was made. Subcutaneously at the skin incision, a mini-osmotic pump (model 2002, 0.5 μl/hr, Alzet Co.) attached to a polyvinyl alcohol sponge was inserted. The mini-osmotic pumps were filled either with PBS or a solution of 1M omithine in PBS as indicated on Table 5 below. The rats tolerated the procedure well and recovered uneventfully. […]

SMILES: N=C(N)NCCC[C@H](N)C(=O)O [Arginine, arginine]
- increase in collagen biosynthesis accumulation compared to the PBS (control) group (Experimental Example 1, arginine 0.01M): ≥ 10%
- OHP (collagen synthesis) (Experimental Example 1, arginine 0.01 M in PBS by mini-osmotic pump, PBS control 569 ± 27): 633 ± 54 μg/100 mg sponge
- increase in collagen biosynthesis accumulation compared to the PBS (control) group (Experimental Example 1, arginine 0.1M): ≥ 10%
- OHP (collagen synthesis) (Experimental Example 1, arginine 0.1 M in PBS by mini-osmotic pump, PBS control 569 ± 27): 698 ± 74 μg/100 mg sponge
- increase in collagen biosynthesis accumulation compared to the PBS (control) group (Experimental Example 1, arginine 1M): over 60%
- OHP (collagen synthesis) (Experimental Example 1, arginine 1 M in PBS by mini-osmotic pump (2 mg/animal/day), PBS control 569 ± 27): 928 ± 55 μg/100 mg sponge
- increase in collagen biosynthesis accumulation compared to the PBS (control) group (Experimental Example 2, arginine 1M): over 30%
- OHP (collagen synthesis) (Experimental Example 2, arginine 1 M in PBS by mini-osmotic pump (2 mg/animal/day), PBS control 574 ± 43): 797 ± 48 μg/100 mg sponge

SMILES: NCCC[C@H](N)C(=O)O [Ornithine, ornithine]
- increase in collagen biosynthesis accumulation compared to the PBS (control) group (Experimental Example 3, ornithine 1M): over 45%
- OHP (collagen synthesis) (Experimental Example 3, ornithine 1 M in PBS by mini-osmotic pump, PBS control 588 ± 45): 854 ± 71 μg/100 mg sponge
